Measurements published in PMC12856317, “A reversible feedback mechanism regulating mitochondrial heme synthesis” (The Journal of Biological Chemistry, 2025).

Key:
[1] = target: T1, holoALAS2 ΔN (residues 75–587) (Homo sapiens, UniProt P22557); assay: Colorimetric ALA release activity assay, hemin inhibition of holoenzyme; format: biochemical
T1 construct: a truncation without HRM3 (ΔN, residues 75–587); His6-SUMO (N, cleaved yes); made in house; host or cells: Escherichia coli BL21-Codon Plus (DE3)-RIL
T1 sequence (P22557 75-587): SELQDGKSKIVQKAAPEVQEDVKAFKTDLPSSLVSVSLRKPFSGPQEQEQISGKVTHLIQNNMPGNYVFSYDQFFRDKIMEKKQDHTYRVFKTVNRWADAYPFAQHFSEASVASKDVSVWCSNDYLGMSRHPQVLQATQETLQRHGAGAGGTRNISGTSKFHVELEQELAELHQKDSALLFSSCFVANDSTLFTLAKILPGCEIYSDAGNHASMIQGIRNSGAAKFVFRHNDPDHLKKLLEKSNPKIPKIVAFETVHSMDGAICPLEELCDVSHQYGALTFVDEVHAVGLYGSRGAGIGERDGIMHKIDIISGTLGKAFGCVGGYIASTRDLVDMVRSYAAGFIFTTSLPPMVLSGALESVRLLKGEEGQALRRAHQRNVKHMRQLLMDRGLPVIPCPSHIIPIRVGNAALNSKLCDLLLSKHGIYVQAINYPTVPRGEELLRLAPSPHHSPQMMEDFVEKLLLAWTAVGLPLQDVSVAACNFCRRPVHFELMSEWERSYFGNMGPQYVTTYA
Protocol: (§1) A discontinuous colorimetric activity assay adapted from Shoolingin-Jordan et al. and Bailey et al. was used to measure the enzyme activity ([48], [74]). The reaction was initiated by adding 100 nM purified enzyme to 50 mM potassium phosphate, pH 7.0, 10 mM MgCl2, 1 mM DTT, 100 mM glycine, and 300 μM succinyl-CoA (175 μl total). The reaction was incubated at 37 °C for 15 min and terminated with 100 μl of cold 10% trichloroacetic acid. The precipitated protein was removed by centrifugation for 5 min at 13,000g, and 240 μl of the supernatant was mixed with 240 μl of 1 M sodium acetate, pH 4.6. To derivatize ALA, 20 μl of acetylacetone was added to the mixture and boiled at 100 °C for 10 min. After the sample was cooled for 20 min, 100 μl aliquots were transferred into a clear 96-well plate in triplicate. An equal volume of Ehrlich’s reagent (p-Dimethylaminobenzaldehyde, DMAB) was added to each well, and the absorbance was monitored at 553 nm using a microplate reader (Thermo Fisher Scientific). The peak absorbance value was converted to molar ALA concentration using ε553 = 60,400 M^−1 cm^−1.
(§2) Inhibition of enzyme activity was determined by titrating hemin (0.1 μM–60 μM) into the substrate mixture before initiating the reaction upon enzyme addition. Hemin was dissolved in 100% dimethyl sulfoxide (DMSO) (ε403 nm = 170,000 M^−1 cm^−1) and serially diluted in 100% DMSO to prepare stock solutions for each concentration. The final DMSO concentration in the reaction mixture was 2%. All experiments were performed with a minimum of three biological replicates, each with three technical replicates. Data were fitted using nonlinear regression to generate an inhibitor dose-response curve (IC50) or an agonist dose-response curve (EC50), and statistical significance was determined using a one-way ANOVA with GraphPad Prism 10.

[2] = target: T2, holoALAS2 Cys-mut (C70A/C555A/C558A) (Homo sapiens, UniProt P22557, C555A/C558A/C70A); assay: as above; format: biochemical; settings: 0.1 μM–60 μM hemin titrated into holoenzyme
T2 construct: Site-directed mutagenesis was performed on the mature ALAS2 (residues 54–587) construct to generate truncations and cysteine mutants; His6-SUMO (N, cleaved yes); made in house; host or cells: Escherichia coli BL21-Codon Plus (DE3)-RIL
T2 sequence (P22557 54-587 C70A/C555A/C558A): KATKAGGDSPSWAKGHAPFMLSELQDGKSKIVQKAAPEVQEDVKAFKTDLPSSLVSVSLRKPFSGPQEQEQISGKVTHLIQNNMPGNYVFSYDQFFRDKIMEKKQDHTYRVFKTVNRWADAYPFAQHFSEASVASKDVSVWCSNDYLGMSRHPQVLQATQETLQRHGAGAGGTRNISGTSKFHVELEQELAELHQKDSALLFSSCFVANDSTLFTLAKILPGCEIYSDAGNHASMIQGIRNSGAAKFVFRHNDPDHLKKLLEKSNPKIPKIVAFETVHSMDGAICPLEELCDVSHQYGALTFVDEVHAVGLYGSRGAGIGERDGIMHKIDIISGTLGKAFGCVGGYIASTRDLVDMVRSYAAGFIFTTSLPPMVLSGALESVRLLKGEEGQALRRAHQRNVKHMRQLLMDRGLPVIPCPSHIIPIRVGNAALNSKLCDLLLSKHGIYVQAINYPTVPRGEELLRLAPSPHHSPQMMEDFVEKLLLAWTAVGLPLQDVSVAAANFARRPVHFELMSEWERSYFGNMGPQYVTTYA
Protocol: as §1, §2

[3] = target: T3, human ALAS2 Cys-mut (C70A/C555A/C558A) (Homo sapiens, UniProt P22557, C555A/C558A/C70A); assay: Isothermal titration calorimetry, hemin-protein interaction; format: binding; settings: ITC, 25 °C
T3 construct: Site-directed mutagenesis was performed on the mature ALAS2 (residues 54–587) construct to generate truncations and cysteine mutants; His6-SUMO (N, cleaved yes); made in house; host or cells: Escherichia coli BL21-Codon Plus (DE3)-RIL
T3 sequence (P22557 54-587 C70A/C555A/C558A): T2 sequence (P22557 54-587 C70A/C555A/C558A)
Protocol: (§3) Binding curves of the hemin-protein interaction were determined using Nano-ITC instrument (TA instruments) at 25 °C. Hemin was dissolved in 1 M NaOH and autoclaved to prepare a stock solution of 746 μM, ε385nm = 58,440 M^−1 cm^−1. The stock solution was diluted to 1.5 μM in titration buffer containing 25 mM Hepes, pH 7, 150 mM KCl, and 0.5 mM TCEP. Protein samples were dialyzed into the titration buffer and diluted to a final concentration of 40 μM. Fixed volumes of protein were injected at 200-s intervals into the cell containing hemin. An A + B hetero-association model was used to determine the thermodynamic parameters for each variant. Data were integrated and analyzed using NITPIC and SEDPHAT and visualized using GUSSI ([71], [72], [73]).

[4] = target: T4, human ALAS2 ΔN (residues 75–587) (Homo sapiens, UniProt P22557); assay: as above; format: binding; settings: ITC, 25 °C
T4 construct: a truncation without HRM3 (ΔN, residues 75–587); His6-SUMO (N, cleaved yes); made in house; host or cells: Escherichia coli BL21-Codon Plus (DE3)-RIL
T4 sequence (P22557 75-587): T1 sequence (P22557 75-587)
Protocol: as §3

[5] = 95% confidence interval in brackets

For ferric chloride heme [hemin], the “IC50 fold higher than WT” value ([1]; ΔN versus WT) was roughly 2 fold, the IC50 ([1]; ΔN, 0.1 μM–60 μM hemin titrated into holoenzyme) was 35.8 ± 0.4 µM and the IC50 [2] was 24.8 ± 0.5 µM. The ΔG [3] was -8.48 kcal/mol, the ΔS [3] was −1.18 kcal/mol K and the Kd [3, 5] was 0.61 µM. For the same substance, the ΔH [3, 5] was −361 [−561, −280] kcal/mol, the ΔG [4] was -8.50 kcal/mol and the ΔS [4] was −3.35 kcal/mol K. The Kd [4, 5] was 0.589 µM and the ΔH [4, 5] was −1006 [−1432, −810] kcal/mol.
